Each molecule was assayed on TLR7 (assay: TLR-induced cytokine release (TNF-alpha) in human PBMC, TLR7 ligand stimulation). Settings: human PBMC incubated 18 hours with test substance and TLR7 ligand; TNF-alpha in supernatant by ELISA; read-out: EC50 (TNF-α TLR7).
Format: cell-based
Experimental: TLR-Induced Cytokine Release in Human “Peripheral Blood Mononuclear Cells” (PBMC)
PBMCs isolated from human whole blood are stimulated using a TLR ligand.
The cytokine determination is carried out by means of ELISA kits; a proliferation/cell metabolism determination is carried out using Alamar Blue.
For the cell preparation, about 200 ml of blood are treated with an anticoagulant (e.g. citrate Monovettes). Per Leucosep tube, 15 ml of Histopaque (room temperature, RT) are poured in and forced downwards through the inserted frit by brief initial centrifugation (one minute at 1000×g, RT). 20 ml of blood are added to the tubes prepared in this way and centrifuged at 800×g for 15 minutes (RT). After centrifugation, the following layered arrangement results from the top to the bottom:
plasma-PBMC-Histopaque-filter disc-Histopaque-erythrocytes and granulocytes. The supernatant plasma is aspirated. The PBMC are transferred together with the underlying Histopaque to a new 50 ml tube, the contents of two Leucosep tubes always being added to one 50 ml tube. The 50 ml tubes are then filled to 50 ml with PBS. This cell suspension is centrifuged at 300×g (RT) for 10 minutes.
The liquid supernatant is tipped off and the cell pellet is resuspended with a little PBS and subsequently filled to 50 ml with PBS. This washing step is repeated twice. The resulting pellet is taken up in a defined volume of medium (with additives). For the testing of the substances, PBMC are incubated for 18 hours with titrated concentrations of the test substances, e.g. in the presence or absence of TLR7 or TLR9 ligands. On the next day, the supernatants are investigated for the content of TNF-alpha or other cytokines or chemokines by means of specific ELISA. The metabolic activity of the treated cells is determined with the aid of Alamar Blue.

EC50 | Compound
50 nM | Cn1cc(NC(=O)c2csc(-c3cn[nH]c3)n2)c(C(N)=O)n1 [Example 1, 2-(1H-Pyrazol-4-yl)thiazole-4-(3-carbamoyl-1-methyl-1H-pyrazol-4-yl)-carboxamide]
120 nM | Cc1ccc(C(N)=O)c(NC(=O)c2csc(-c3cn[nH]c3)n2)c1 [Example 3, N-[2-(Aminocarbonyl)-5-methylphenyl]-2-(1H-pyrazol-4-yl)thiazole-4-carboxamide]
3800 nM | Cc1cc(-c2nc(C(=O)Nc3ccccc3C(N)=O)cs2)cs1 [Example 2, N-[2-(Aminocarbonyl)phenyl]-2-(5-methyl-3-thienyl)-4-thiazole-carboxamide]
